Tested on: genotype A, "Long" strain RSV
Experiment: RSV-A in vitro cytoprotection assay in HEp-2 cells (ATPlite readout of cell viability)
Type: cell-based, Human respiratory syncytial virus
Settings: human respiratory syncytial virus, HEp-2, HEp-2 cells, genotype A “Long” strain RSV, cytoprotection; read-out: Human RSV-A (“Long” strain) EC50
Summary of the method: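 Cytoprotection measured as ATP-based luminescence (ATPlite) after 4-day incubation of RSV Long-infected HEp-2 cells (8,000/well, 10% FBS DMEM) with 2-fold serial compound dilutions in duplicate. Identically treated virus-free plate gives cytotoxicity; EC50 calculated from viability.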

Structure (SMILES)	EC50 [µM]
Cc1cccc(F)c1NC(=O)c1cc2c(s1)-c1ccccc1N(C(=O)c1cccc(NCC(C)(C)S(C)(=O)=O)n1)CC2 [Example 465]	0.4 to 0.8
Cc1cccc(F)c1NC(=O)c1cc2c(s1)-c1ccc(F)cc1N(C(=O)c1cccc(-c3c[nH]c4ncccc34)n1)CC2 [Example 173]	< 0.4
Cc1cccc(F)c1NC(=O)c1cc2c(s1)-c1ccccc1N(C(=O)c1cccc(NCCO)n1)CC2 [Example 329]	> 0.8
Cc1cccc(F)c1NC(=O)c1cc2c(s1)-c1cc(F)ccc1N(C(=O)c1cccc(N3CCOc4ccccc4C3)n1)CC2 [Example 395]	< 0.4
O=C(NC1CC1)c1cc2c(s1)-c1ccccc1N(C(=O)c1cccc(-c3cccc(N4CCOCC4)c3)n1)CC2 [Example 67]	> 0.8
Cc1ccc2[nH]cc(-c3cccc(C(=O)N4CCc5cc(C(=O)Nc6c(C)cccc6F)sc5-c5ccccc54)n3)c2c1 [Example 255]	0.4 to 0.8
O=C(NC1CC1)c1cc2c(s1)-c1ccccc1N(C(=O)c1ccc(N3CCOCC3)cc1)CC2 [Example 3]	> 0.8
Cc1cccc(F)c1NC(=O)c1cc2c(s1)-c1ccccc1N(C(=O)c1cccc(-n3c(=O)[nH]c4ccccc43)n1)CC2 [Example 450]	< 0.4
CN(C)C(=O)c1cc2c(s1)-c1ccccc1N(C(=O)c1cccc(N3CCCOCC3)n1)CC2 [Example 99]	> 0.8
O=C(NC1CC1)c1cc2c(s1)-c1ccccc1N(C(=O)c1cccc(-c3cnc(N4CCOCC4)s3)n1)CC2 [Example 161]	0.4 to 0.8
Cc1cccc(F)c1NC(=O)c1cc2c(s1)-c1ccccc1N(C(=O)c1cccc(N(C)C3CCS(=O)(=O)C3)n1)CC2 (stereo not drawn) [Example 439]	> 0.8
COc1ccc(-c2cccc(C(=O)N3CCc4cc(C(=O)NC5CC5)oc4-c4ccccc43)n2)cn1 [Example 107]	0.4 to 0.8
Cc1cccc(F)c1NC(=O)c1cc2c(s1)-c1ccccc1N(C(=O)c1cccc(NC[C@H]3CCCO3)n1)CC2 [Example 460]	< 0.4
Cc1cccc(F)c1NC(=O)c1cc2c(s1)-c1ccccc1N(C(=O)c1cccc(NC3CCOCC3)n1)CC2 [Example 453]	< 0.4
Cc1cccc(F)c1NC(=O)c1cc2c(s1)-c1ccccc1N(C(=O)c1cccc(-c3cnn4ccccc34)n1)CC2 [Example 244]	< 0.4
N#Cc1ccc(-c2cccc(C(=O)N3CCc4cc(C(=O)NC5CC5)sc4-c4ccccc43)c2)cc1 [Example 7]	0.4 to 0.8
O=C(NC1CC1)c1cc2c(s1)-c1ccccc1N(C(=O)c1cccc(-n3ccc4ccccc43)n1)CC2 [Example 112]	> 0.8
Cc1cccc(F)c1NC(=O)c1cc2c(s1)-c1ccccc1N(C(=O)c1cccc(N(C)Cc3cccc(-c4cccnc4)c3)n1)CC2 [Example 351]	> 0.8
COC(=O)N[C@H]1C[C@H](C)N(c2cccc(C(=O)N3CCc4cc(C(=O)Nc5c(C)cccc5F)sc4-c4ccccc43)n2)C1 [Example 391]	< 0.4
O=C(NC1CC1)c1cc2c(s1)-c1ccccc1N(C(=O)c1ccc(CN3CCOCC3)cc1)CC2 [Example 1]	> 0.8
Cc1cccc(F)c1NC(=O)c1cc2c(s1)-c1ccccc1N(C(=O)c1cccc(-n3cc(S(C)(=O)=O)cn3)n1)CC2 [Example 144]	> 0.8
O=C(NC1CC1)c1cc2c(s1)-c1ccccc1N(C(=O)c1cc(N3CCOCC3)ccn1)CC2 [Example 48]	> 0.8

Structure (SMILES)	EC50 [µM]
CC(=O)NCCN(C)c1cccc(C(=O)N2CCc3cc(C(=O)Nc4c(C)cccc4F)sc3-c3ccccc32)n1 [Example 372]	0.4 to 0.8
COc1ccc(-c2cccc(C(=O)N3CCc4cc(C(=O)NCC5CC5)sc4-c4ccccc43)n2)cn1 [Example 96]	0.4 to 0.8
Cc1cccc(F)c1NC(=O)c1cc2c(s1)-c1cc(F)ccc1N(C(=O)c1cccc(-c3c[nH]nc3C3CC3)n1)CC2 [Example 263]	< 0.4
COc1ccc2c(c1)S(=O)(=O)CCN(c1cccc(C(=O)N3CCc4cc(C(=O)Nc5c(C)cccc5F)sc4-c4ccccc43)n1)C2 [Example 437]	< 0.4
O=C(NC1CC1)c1cc2c(s1)-c1ccccc1N(C(=O)c1cccc(N3CCC4(CC3)COC4)n1)CC2 [Example 18]	0.4 to 0.8
CCn1nccc1-c1cccc(C(=O)N2CCc3cc(C(=O)Nc4c(C)cccc4F)sc3-c3ccc(F)cc32)n1 [Example 174]	< 0.4
O=C(NC1CC1)c1cc2c(s1)-c1ccccc1N(C(=O)c1csc(N3CCOCC3)n1)CC2 [Example 12]	0.4 to 0.8
Cc1cccc(F)c1NC(=O)c1cc2c(s1)-c1ccccc1N(C(=O)c1cccc(N3CCS(=O)(=O)C(C)(C)C3)n1)CC2 [Example 431]	< 0.4
CCn1nccc1-c1cccc(C(=O)N2CCc3cc(C(=O)Nc4c(C)cccc4F)oc3-c3ccccc32)n1 [Example 273]	> 0.8
COCCN(c1cccc(C(=O)N2CCc3cc(C(=O)Nc4c(C)cccc4F)sc3-c3ccccc32)n1)C1CCC1 [Example 328]	< 0.4
Cc1noc([C@H]2C[C@H](O)CN2c2cccc(C(=O)N3CCc4cc(C(=O)Nc5c(C)cccc5F)sc4-c4ccccc43)n2)n1 [Example 497]	> 0.8
Cc1cccc(F)c1NC(=O)c1cc2c(s1)-c1ccccc1N(C(=O)c1cccc(N3CCOc4cccc(F)c4C3)n1)CC2 [Example 368]	< 0.4
Cc1cccc(F)c1NC(=O)c1cc2c(s1)-c1ccccc1N(C(=O)c1cccc(N3CCCN(S(C)(=O)=O)CC3)n1)CC2 [Example 384]	< 0.4
COCCNC(=O)c1cc2c(s1)-c1ccccc1N(C(=O)c1cccc(-c3ccc(OC)nc3)n1)CC2 [Example 97]	0.4 to 0.8
CCn1nccc1-c1cccc(C(=O)N2CCc3cc(C(=O)Nc4c(C)cccc4F)sc3-c3ccccc32)n1 [Example 238]	< 0.4
Cc1cccc(F)c1NC(=O)c1cc2c(s1)-c1cccc(F)c1N(C(=O)c1cccc(-c3c[nH]c4ncccc34)n1)CC2 [Example 259]	< 0.4
O=C(NC1CC1)c1cc2c(s1)-c1ccccc1N(C(=O)c1cccc(N3CCc4ccccc4CC3)n1)CC2 [Example 31]	> 0.8
Cc1cccc(F)c1NC(=O)c1cc2c(s1)-c1ccccc1N(C(=O)c1cccc(N3CCOC4(CCCC4)C3)n1)CC2 [Example 416]	< 0.4
O=C(NC1CC1)c1cc2c(s1)-c1ccccc1N(C(=O)c1ccc(Cl)c(N3CCOCC3)n1)CC2 [Example 42]	0.4 to 0.8
COc1ccccc1C(C)(C)Nc1cccc(C(=O)N2CCc3cc(C(=O)NC4CC4)sc3-c3ccccc32)n1 [Example 322]	> 0.8
Cc1cccc(F)c1NC(=O)c1cc2c(s1)-c1ccccc1N(C(=O)c1cccc(N3CCCCC(F)(F)C3)n1)CC2 [Example 445]	< 0.4
O=C(Nc1cc2c(s1)-c1ccccc1N(C(=O)c1cccc(N3CCOc4ccccc4C3)n1)CC2)c1ccccc1 [Example 313]	0.4 to 0.8

Structure (SMILES)	EC50 [µM]
O=C(NC1CC1)c1cc2c(s1)-c1ccccc1N(C(=O)c1ccc3ncn(C4CCOCC4)c3c1)CC2 [Example 13]	> 0.8
COc1ccc(C(=O)N2CCc3cc(C(=O)NC4CC4)sc3-c3ccccc32)nc1N1CCCOCC1 [Example 40]	0.4 to 0.8
Cc1cccc(F)c1NC(=O)c1cc2c(s1)-c1ccccc1N(C(=O)c1cccc(N(C)Cc3cccc4ccccc34)n1)CC2 [Example 353]	> 0.8
O=C(NC1CC1)c1cc2c(s1)-c1ccccc1N(C(=O)c1cccc(N3CCOCC3)n1)CC2 [Example 16]	0.4 to 0.8
O=C(Nc1ncc2c(n1)-c1ccccc1N(C(=O)c1cccc(N3CCCOCC3)n1)CC2)C1CC1 [Example 111]	> 0.8
Cc1cccc(F)c1NC(=O)c1cc2c(s1)-c1ccccc1N(C(=O)c1cccc(N3CCCOC(C)(C)C3)n1)CC2 [Example 402]	< 0.4
O=C(NC1CC1)c1cc2c(s1)-c1ccccc1N(C(=O)c1ccc(Cl)c(N3CCCOCC3)n1)CC2 [Example 43]	0.4 to 0.8
COC[C@@H](Nc1cccc(C(=O)N2CCc3cc(C(=O)Nc4c(C)cccc4F)sc3-c3ccccc32)n1)c1ccccc1 [Example 501]	> 0.8
O=C(NC1CC1)c1cc2c(s1)-c1ccccc1N(C(=O)c1ccc3ccc(N4CCOCC4)cc3n1)CC2 [Example 298]	> 0.8
O=C(NC1CC1)c1cc2c(s1)-c1ccccc1N(C(=O)c1cccc(N3CC4(CCOCC4)C3)n1)CC2 [Example 19]	> 0.8
Cc1cccc(F)c1NC(=O)c1cc2c(s1)-c1ccccc1N(C(=O)c1cccc(N[C@H](CO)c3ccccc3)n1)CC2 [Example 502]	< 0.4
Cc1cccc(F)c1NC(=O)c1cc2c(s1)-c1ccccc1N(C(=O)c1cccc(N3CCN(S(C)(=O)=O)Cc4ccccc43)n1)CC2 [Example 379]	> 0.8
Cc1cccc(F)c1NC(=O)c1cc2c(s1)-c1ccccc1N(C(=O)c1cccc(N[C@@H](C)c3ccccn3)n1)CC2 [Example 340]	> 0.8
Cc1cccc(F)c1NC(=O)c1cc2c(s1)-c1ccccc1N(C(=O)c1ccc(NC(=O)NCCN3CCOCC3)cc1)CC2 [Example 129]	> 0.8
Cc1cnc(N2CC3(COC3)C2)c(NC(=O)c2ccc(C(=O)N3CCc4cc(C(=O)Nc5c(C)cccc5F)sc4-c4ccccc43)cc2)c1 [Example 141]	> 0.8
O=C(NC1CC1)c1cc2c(s1)-c1ccccc1N(C(=O)c1cccc(-c3ccc(C(=O)N4CCOCC4)cc3)n1)CC2 [Example 68]	0.4 to 0.8
Cc1cccc(F)c1NC(=O)c1cc2c(s1)-c1ccccc1N(C(=O)c1cccc(N3C[C@@H](N)C[C@@H]3C)n1)CC2 [Example 390]	> 0.8
Cc1cc(-c2ccc(C(=O)N3CCc4cc(C(=O)Nc5c(C)cccc5F)sc4-c4ccccc43)cc2)n[nH]1 [Example 270]	> 0.8
Cc1cccc(F)c1NC(=O)c1cc2c(s1)-c1ccccc1N(C(=O)c1cccc(-c3cn(C)c4ccccc34)n1)CC2 [Example 208]	> 0.8
O=C(NC1CC1)c1cc2c(s1)-c1ccccc1N(C(=O)c1ccc(F)c(N3CCOCC3)n1)CC2 [Example 44]	0.4 to 0.8
O=C(NC1CCOCC1)c1cc2c(s1)-c1ccccc1N(C(=O)c1cccc(N3CCOc4ccccc4C3)n1)CC2 [Example 307]	< 0.4
Cc1cccc(F)c1NC(=O)c1cc2c(s1)-c1ccccc1N(C(=O)c1cccc(-c3c[nH]nc3C3CC3)n1)CC2 [Example 196]	< 0.4

— patent publication US10759816B2, “Heterocyclic compounds as RSV inhibitors” (Enanta Pharmaceuticals, Inc., priority 2016, dated 2020)
